Test results taken from patent US20220331492A1, “COMPOSITION AND METHOD FOR CONTROLLED DRUG RELEASE FROM A TISSUE” (Bard Shannon Limited, priority 2017, published 2022).

Assays:
[1] = cited from earlier work
[2] = mixed with fibrin glue; cited from earlier work
[3] = In vitro drug release from antibiotic-encapsulated PLGA microparticles; assay type: physicochemical; conditions: drug encapsulated in free PLGA (50:50) microparticles; buffer, 37° C., 120 rpm
Protocol: The amount of antibiotic was determined by dissolving 20 mg beads in 1 mL NaOH 1 M at 37° C. After complete dissolution, 1 mL of HCl 1 M was added to neutralize the pH. […] A mixture of NaOH 1 M and HCl 1 M (1:1) was used as a blank.
The gentamicin concentration was determined by a colormetric assay: 0.5 mL of the gentamicin solution was mixed with 0.35 mL of sodium phosphate buffer (50 mM, pH 7.4) and 0.15 mL of 1.25% ninhydrin solution. The reaction occurred at 95° C. for 15 minutes and the tubes were then cooled in an ice-water bath for 10 min. The UV-visible spectra over the wavelength range of 200-700 nm were measured using the mixture of ninhydrin and the respective buffer solution at the appropriate concentrations as the blanks. The gentamicin concentration was calculated at the maximal absorbance (λmax˜315 nm).
The microspheres (25 mg of ciprofloxacin-encapsulated PLGA beads, 80 mg of gentamicin encapsulated PLGA beads, 40 mg of vancomycin-encapsulated PLGA beads) were placed into glass vials filled with 10 mL solution (PBS for vancomycin and ciprofloxacin-encapsulated PLGA beads and sodium phosphate buffer for gentamicin encapsulated PLGA beads). The vials were placed in an orbital shaker incubator at 37° C., where they were shaken at 120 rpm. […] Finally, the 1.5 mL of suspension were returned back into the glass vials. For gentamicin, the reaction with ninhydrin is irreversible. 0.5 ml, of the solution was replaced each day with fresh sodium phosphate buffer to maintain a constant volume.

[4] = Release of ciprofloxacin from PLGA microparticles embedded in enzymatically crosslinked gelatin matrix; assay type: physicochemical
Protocol: Entrapment of microparticles in enzymatically crosslinked gelatin hydrogel was performed as follows.
This solution was mixed with 5.0 gr of gelatin solution. 0.25 gr of the mixture was cast in a glass vial, and curing occurred at 37° C. for 15 min. 5 mL of PBS was added to the vial to wash the gel. An additional 5 mL of PBS was added and the vial was placed in an orbital shaker incubator at 37° C. where it was shaken at 120 rpm. Once a day, 1.5 mL of the cured gel extract was centrifuged and 1 mL of the supernatant was taken to spectrophotometer to measure the drug concentration. After measurement, the 1.5 mL extract was returned back into the glass vials, crosslinked gelatin without beads was casted according to the same procedure and the extract was used as blank.

[5] = system: Bacillus subtilis (ATCC 6633); experiment: Microdilution assay of hydrogel disc extracts versus MIC; assay type: cell-based; conditions: extracts of crosslinked gelatin hydrogel containing 2% drug-loaded PLGA beads; throughout the study (1-14 days)
Protocol: (§1) The bacteria used was Bacillus subtilis, which serves as a model microorganism for gram positive bacteria.
6 discs of 0.2 gr crosslinked gelatin containing 2% vancomycin/gentamicin-encapsulated PLGA beads were casted in plastic mold of 12 mm diameter. After […] of curing at 37° C., the gels were separately placed in glass vial filled with 1.5 mL sodium phosphate buffer. The vials were placed in an incubator at 37° C. After 1, 2, 4, 7, 11 and 14 days, the gel was taken out and the hydrogel extract was frozen until test.
The antibacterial activity of the hydrogel discs extracts was studied by employing a microdilution method (FIG. 3b). Plates were prepared under sterile conditions. 100 μL of test materials were pipetted into the first column of the sterile 96-well plate. To all other wells 50 μL of saline was added. Serial dilutions were performed using a multichannel pipette. Tips were discarded after use such that each well had 50 μL of the test material in serially descending concentrations. […]
After 24 hours, the OD of each well was measured at 600 nm to determinate the presence or absence of bacterium. The lowest concentration at which […] was taken as the MIC value.

[6] = system: Bacillus subtilis (ATCC 6633); experiment: Agar disk-diffusion (Kirby-Bauer) assay of crosslinked gelatin discs containing antibiotic PLGA beads; assay type: cell-based; conditions: crosslinked gelatin hydrogel containing drug-loaded PLGA MPs; gels incubated in saline for 14 days
Protocol: as §1
3 discs of 0.2 gr crosslinked gelatin containing 2% vancomycin-gentamicin-encapsulated PLGA beads were casted as previously reported 3 additional discs without beads were also casted and used as negative control. Filters containing 30 μg antibiotics (gentamicin or vancomycin) were used as positive controls.
The gel discs with and without beads and the filter containing antibiotics were placed in LB agar plates on which 100 μl of bacterium suspension had been evenly spread. The petri dishes were placed in an orbital shaker incubator at 37° C. where a horizontal shake was performed at 120 rpm.

Compound	release kinetics after initial burst release [3]	concentration of the eluted antibiotic drug relative to MIC [5]	bacteria killing (ring around the gel) in agar diffusion assay [6]	further results
CCOC(=O)c1ccc(N)cc1 [Benzocaine]				water solubility [1]: very low
Cc1nnc(SCC2=C(C(=O)O)N3C(=O)[C@@H](NC(=O)Cn4cnnn4)[C@H]3SC2)s1 [cefazolin]				release time [2]: 2 days
O=C(O)c1cn(C2CC2)c2cc(N3CCNCC3)c(F)cc2c1=O [ciprofloxacin]	zero order kinetics			time over which the drug eluted ([4]; PLGA MPs embedded in in situ cross-linkable gelatin matrix): 2 weeks; release rate of MPs embedded in gelatin matrix compared to free MPs ([4]; PLGA MPs embedded in in situ enzymatically crosslinked gelatin, PBS, 37° C.): somewhat slower
CN[C@H](CC(C)C)C(=O)N[C@H]1C(=O)N[C@@H](CC(N)=O)C(=O)N[C@H]2C(=O)N[C@H]3C(=O)N[C@H](C(=O)N[C@H](C(=O)O)c4cc(O)cc(O)c4-c4cc3ccc4O)[C@H](O)c3ccc(c(Cl)c3)Oc3cc2cc(c3O[C@@H]2O[C@H](CO)[C@@H](O)[C@H](O)[C@H]2O[C@H]2C[C@](C)(N)[C@H](O)[C@H](C)O2)Oc2ccc(cc2Cl)[C@H]1O [vancomycin]	zero order kinetics	considerably above MIC	still had enough drug remaining within the matrix to induce bacteria killing	
gentamycin	zero order kinetics	considerably above MIC	still had enough drug remaining within the matrix to induce bacteria killing	
